Assay [1] concerns the target His-GST-TVMV-hRIPK1(1-324) (Homo sapiens (Human), UniProt Q13546). The experiment in a line: RIPK1 HTRF Binding Assay. The settings on record: HTRF binding, 1 h at rt; read-out: RIPK1 (IC50). The method, boiled down: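 HTRF probe-displacement binding: 1 nM His-GST-TVMV-hRIPK1(1-324) (baculovirus construct), 90.6 nM probe, 0.2 nM anti-GST-Tb in 20 mM HEPES, 10 mM MgCl2, 0.015% Brij-35, 4 mM DTT, 0.05 mg/mL BSA. Incubated 1 h at rt; FRET 520/495 nm ratio, inhibition relative to DMSO-only wells.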
(In general: TR-FRET usually uses a lanthanide donor and a delayed reading to cut background.)

In assay [2] the test system is MLKL phosphorylation in HT29-L23 human colorectal adenocarcinoma cells. The experiment in a line: MLKL Phosphorylation High-Content Assay. It counts as cell-based. Particulars: necroptosis induced with TNFα, SMAC mimetic and Z-VAD, 6 h, read-out: pMLKL (IC50). The method, boiled down:
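HT29-L23 cells pretreated 30 min at 37 °C with compound (6.25 to 0.106 μM final), then necroptosis induced with TNFα 35 ng/mL, SMAC mimetic 700 nM and Z-VAD 140 nM for 6 h. Fixed cells immunostained for MLKL pS358 and imaged; IC50 and Ymax from 4-parameter logistic fit.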

23 compounds from patent US11440913B2, “Aminoimidazopyridazines as kinase inhibitors” (BRISTOL-MYERS SQUIBB COMPANY, priority 2017, dated 2022) can be followed below.

Counter-ions that a name gives are not always drawn. Like-named read-outs stand apart in the source and are kept apart here.

Sequence of His-GST-TVMV-hRIPK1(1-324) (Q13546 1-324): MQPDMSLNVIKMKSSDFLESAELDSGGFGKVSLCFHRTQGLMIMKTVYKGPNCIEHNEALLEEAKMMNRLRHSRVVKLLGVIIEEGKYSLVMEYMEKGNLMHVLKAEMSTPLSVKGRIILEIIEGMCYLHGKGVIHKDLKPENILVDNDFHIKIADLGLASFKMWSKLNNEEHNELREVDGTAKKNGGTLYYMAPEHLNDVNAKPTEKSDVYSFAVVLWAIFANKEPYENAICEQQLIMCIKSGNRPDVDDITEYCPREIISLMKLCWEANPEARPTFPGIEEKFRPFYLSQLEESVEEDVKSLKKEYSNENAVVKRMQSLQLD

With `[2H]C([2H])([2H])Oc1ncc(-c2ccc3nc(NC(C)=O)cn3n2)cc1C(=O)NC(C)c1ccccc1OC(F)(F)F` (stereo not shown) [Example 57, 5-{2-acetamidoimidazo[1,2-b]pyridazin-6-yl}-2-(D3)methoxy-N-{1-[2-(trifluoromethoxy)phenyl]eth-yl}pyridine-3-carboxamide], the IC50 – broadly, the concentration that inhibits the measured activity by half – in assay [1] is 10 nM; in assay [2], 25 nM.

Consider `[2H]C([2H])([2H])Oc1ncc(-c2ccc3nc(NC(C)=O)cn3n2)cc1C(=O)NCc1cc(OC(F)(F)F)ccc1F` [Example 58, 5-{2-acetamidoimidazo[1,2-b]pyridazin-6-yl}-N-{[2-fluoro-5-(trifluoromethoxy)phenyl]methyl}-2-(D3)methoxypyridine-3-carboxamide], for which the IC50 stood at 14 nM in assay [1] and 21 nM in assay [2] (Homo sapiens).

Regarding `CC(=O)Nc1cn2nc(-c3cc(C(=O)NCc4cc(F)cc(F)c4OC4CCCOC4)c(C)nc3C)ccc2n1` (stereo not shown) [Example 59, N-{[3,5-difluoro-2-(oxan-3-yloxy)phenyl]methyl}-5-{2-acetamidoimidazo[1,2-b]pyridazin-6-yl}-2,6-dimethylpyridine-3-carboxamide], the IC50 in assay [1] stood at 12 nM; in assay [2] (Homo sapiens), 17 nM.

Turning to `CC(=O)Nc1cn2nc(-c3cc(C(=O)NCc4cc(F)cc(F)c4O[C@H]4CCOC4)c(C)nc3C)ccc2n1` [Example 60, N-({3,5-difluoro-2-[(3S)-oxolan-3-yloxy]phenyl}methyl)-5-{2-acetamidoimidazo[1,2-b]pyridazin-6-yl}-2,6-dimethylpyridine-3-carboxamide], the results for the IC50 in assay [1] and in assay [2] (Homo sapiens) were 6 nM and 26 nM, respectively.

On to `CC(=O)Nc1cn2nc(-c3cc(C(=O)NCc4cc(F)cc(F)c4O[C@@H]4CCOC4)c(C)nc3C)ccc2n1` [Example 61, N-({3,5-difluoro-2-[(3R)-oxolan-3-yloxy]phenyl}methyl)-5-{2-acetamidoimidazo[1,2-b]pyridazin-6-yl}-2,6-dimethylpyridine-3-carboxamide], for which the IC50 in assay [1] amounted to 33 nM; in assay [2] (Homo sapiens) it was 258 nM.

Consider `CC(=O)Nc1cn2nc(-c3cc(C(=O)NCc4cc(F)cc(F)c4OC4CCOC(C)C4)c(C)nc3C)ccc2n1` (stereo not shown) [Example 62, N-({3,5-difluoro-2-[(2-methyloxan-4-yl)oxy]phenyl}methyl)-5-{2-acetamidoimidazo[1,2-b]pyridazin-6-yl}-2,6-dimethylpyridine-3-carboxamide], for which the IC50 in assay [1] is 11 nM; in assay [2] (Homo sapiens), 29 nM.

With `CC(=O)Nc1cn2nc(-c3cc(C(=O)NCc4cccc(F)c4OC4C[C@@H](C)O[C@@H](C)C4)c(C)nc3C)ccc2n1` (stereo partly drawn) [Example 63, N-[(2-{[(2R,6S)-2,6-dimethyloxan-4-yl]oxy}-3-fluorophenyl)methyl]-5-{2-acetamidoimidazo[1,2-b]pyridazin-6-yl}-2,6-dimethylpyridine-3-carboxamide], the IC50 in assay [1] is 149 nM; in assay [2] (Homo sapiens), 340 nM.

`CC(=O)Nc1cn2nc(-c3cc(C(=O)NCc4cc(F)cc(F)c4OC4CC(C)OC(C)C4)c(C)nc3C)ccc2n1` (stereo not shown) [Example 64, N-({2-[(2,6-dimethyloxan-4-yl)oxy]-3,5-difluorophenyl}methyl)-5-{2-acetamidoimidazo[1,2-b]pyridazin-6-yl}-2,6-dimethylpyridine-3-carboxamide]: the IC50 was 49 nM in assay [1] and 45 nM in assay [2] (Homo sapiens).

Take `CC(=O)Nc1cn2nc(-c3cc(C(=O)NCc4ncccc4OCC(F)(F)F)c(C)nc3C)ccc2n1` [Example 65, 5-{2-acetamidoimidazo[1,2-b]pyridazin-6-yl}-2,6-dimethyl-N-{[3-(2,2,2-trifluoroethoxy)pyridin-2-yl]methyl}pyridine-3-carboxamide]: the IC50 in assay [1] came out at 44 nM; in assay [2] (Homo sapiens), 374 nM.

`[2H]C([2H])(NC(=O)c1cc(-c2ccc3nc(NC(C)=O)cn3n2)c(C)nc1C)c1cc(F)cc(F)c1OC1CCOCC1` [Example 66, N-{[3,5-difluoro-2-(oxan-4-yloxy)phenyl](deutero)methyl}-5-{2-acetamidoimidazo[1,2-b]pyridazin-6-yl}-2,6-dimethylpyridine-3-carboxamide]: the values for the IC50 in assay [1] and in assay [2] (Homo sapiens) were 9 nM and 8 nM, respectively.

Regarding `[2H]C([2H])([2H])[C@@H](NC(=O)c1cc(-c2ccc3nc(NC(C)=O)cn3n2)c(C)nc1C)c1cc(C(F)(F)F)ccc1F` [Example 67, 5-{2-acetamidoimidazo[1,2-b]pyridazin-6-yl}-N-[(1R)-1-[2-fluoro-5-(trifluoromethyl)phenyl](2,2,2-deutero)ethyl]-2,6-dimethylpyridine-3-carboxamide], the IC50 in assay [1] and in assay [2] (Homo sapiens) was 14 nM each time.

As to `CC(=O)Nc1cn2nc(-c3cc(C(=O)NCc4ccccc4OCC(F)(F)F)c(C)nc3C)ccc2n1` [Example 68, 5-{2-acetamidoimidazo[1,2-b]pyridazin-6-yl}-2,6-dimethyl-N-{[2-(2,2,2-trifluoroethoxy)phenyl]methyl}pyridine-3-carboxamide], the IC50 in assay [1] is 5 nM; in assay [2] (Homo sapiens), 45 nM.

Consider `CC(=O)Nc1cn2nc(-c3cc(C(=O)N[C@H](C)c4cc(C(F)(F)F)ccc4F)c(C)nc3C)ccc2n1` [Example 69, 5-{2-acetamidoimidazo[1,2-b]pyridazin-6-yl}-N-[(1R)-1-[2-fluoro-5-(trifluoromethyl)phenyl]ethyl]-2,6-dimethylpyridine-3-carboxamide], for which the results for the half-inhibitory concentration (IC50) in assay [1] and in assay [2] (Homo sapiens) were 15 nM and 23 nM, respectively.

Consider `[2H]C([2H])([2H])[C@@H](NC(=O)c1cc(-c2ccc3nc(NC(C)=O)cn3n2)c(C)nc1C)c1cc(OC(F)(F)F)ccc1F` [Example 70, 5-{2-acetamidoimidazo[1,2-b]pyridazin-6-yl}-N-[(1R)-1-[2-fluoro-5-(trifluoromethoxy)phenyl](2,2,2-deutero)ethyl]-2,6-dimethylpyridine-3-carboxamide], for which the IC50 in assay [1] and in assay [2] (Homo sapiens) was 9 nM throughout.

Turning to `CC(=O)Nc1cn2nc(-c3cc(C(=O)N[C@H](C)c4cc(OC(F)(F)F)ccc4F)c(C)nc3C)ccc2n1` [Example 71, 5-{2-acetamidoimidazo[1,2-b]pyridazin-6-yl}-N-[(1R)-1-[2-fluoro-5-(trifluoromethoxy)phenyl]ethyl]-2,6-dimethylpyridine-3-carboxamide], the IC50 in assay [1] was 5 nM; in assay [2] (Homo sapiens), 13 nM.

As for `CC(=O)Nc1cn2nc(-c3cc(C(=O)NCc4cc(F)ccc4OCC(F)(F)F)c(C)nc3C)ccc2n1` [Example 72, 5-{2-acetamidoimidazo[1,2-b]pyridazin-6-yl}-N-{[5-fluoro-2-(2,2,2-trifluoroethoxy)phenyl]methyl}-2,6-dimethylpyridine-3-carboxamide, TFA], the values for the IC50 in assay [1] and in assay [2] (Homo sapiens) were 17 nM and 30 nM, respectively.

On to `CC(=O)Nc1cn2nc(-c3cc(C(=O)NCc4cccc(OCC(F)(F)F)c4)c(C)nc3C)ccc2n1` [Example 73, 5-{2-acetamidoimidazo[1,2-b]pyridazin-6-yl}-2,6-dimethyl-N-{[3-(2,2,2-trifluoroethoxy)phenyl]methyl}pyridine-3-carboxamide], for which the IC50 in assay [1] amounted to 57 nM; in assay [2] (Homo sapiens), 82 nM.

In the case of `[2H]C([2H])(NC(=O)c1cc(-c2ccc3nc(NC(C)=O)cn3n2)c(C)nc1C)c1cccc(C(F)(F)F)c1` [Example 74, 5-{2-acetamidoimidazo[1,2-b]pyridazin-6-yl}-2,6-dimethyl-N-{[3-(trifluoro-methyl)phenyl](deutero)methyl}pyridine-3-carboxamide, TFA], the values for the IC50 in assay [1] and in assay [2] (Homo sapiens) were 63 nM and 353 nM, respectively.

For `[2H]C([2H])(NC(=O)c1cc(-c2ccc3nc(NC(C)=O)cn3n2)c(C)nc1C)c1cc(C(F)(F)F)ccc1F` [Example 75, 5-{2-acetamidoimidazo[1,2-b]pyridazin-6-yl}-N-{[2-fluoro-5-(trifluoromethyl)phenyl](deutero)methyl}-2,6-dimethylpyridine-3-carboxamide], the IC50 in assay [1] came out at 11 nM; in assay [2] (Homo sapiens) it was 32 nM.

Regarding `[2H]C([2H])(NC(=O)c1cc(-c2ccc3nc(NC(C)=O)cn3n2)c(C)nc1C)c1cc(OC(F)(F)F)ccc1F` [Example 76, 5-{2-acetamidoimidazo[1,2-b]pyridazin-6-yl}-N-{[2-fluoro-5-(trifluorometh-oxy)phenyl](deutero)methyl}-2,6-dimethylpyridine-3-carboxamide], the concentration for half-maximal inhibition (IC50) stood at 3 nM in assay [1] and 8 nM in assay [2] (Homo sapiens).

In the case of `CC(=O)Nc1cn2nc(-c3cc(C(=O)NCc4cc(F)cc(F)c4OC4COC4)c(C)nc3C)ccc2n1` [Example 77, N-{[3,5-difluoro-2-(oxetan-3-yloxy)phenyl]methyl}-5-{2-acetamidoimidazo[1,2-b]pyridazin-6-yl}-2,6-dimethylpyridine-3-carboxamide], the IC50 in assay [1] is 17 nM; in assay [2] (Homo sapiens), 265 nM.

As to `CC(=O)Nc1cn2nc(-c3cc(C(=O)NCc4cc(F)cc(F)c4OC4CCOCC4)c(C)nc3C)ccc2n1` [Example 78, N-{[3,5-difluoro-2-(oxan-4-yloxy)phenyl]methyl}-5-{2-acetamidoimidazo[1,2-b]pyridazin-6-yl}-2,6-dimethylpyridine-3-carboxamide], the IC50 in assay [1] was determined as 16 nM; in assay [2] (Homo sapiens) it was 21 nM.

As to `CC(=O)Nc1cn2nc(-c3cc(C(=O)NCc4cc(C(F)(F)F)ccc4F)c(C)nc3C)ccc2n1` [Example 80, 5-{2-acetamidoimidazo[1,2-b]pyridazin-6-yl}-N-{[2-fluoro-5-(trifluoromethyl)phenyl]methyl}-2,6-dimethylpyridine-3-carboxamide], the IC50 in assay [1] was determined as 14 nM; in assay [2] (Homo sapiens), 15 nM.
